From US4218443A, “Polyether ionophores as antiobesity and hypotriglyceridemic agents” (Hoffmann-La Roche Inc., priority 1979, dated 1980)

What was measured:
[1] = system: hepatic fatty acid synthesis; experiment: In vivo hepatic fatty acid synthesis in meal-fed rats; design: species or system Charles River rat; conditions: sodium salt, mean ± SE
Procedure: In the following examples, female rats (Charles River CD strain, 180-200 g) were housed individually in wire bottom cages in a temperature (22°) and light (12 hr light and 12 hr dark) regulated room. They had free access to Purina Rodent Chow and water.

[2] = system: female Charles River rats; experiment: Chronic 31 day dietary admix experiment; type: in vivo, Charles River rat; conditions: 31 days; for Body Weight Gain / Body Weight final / Fat Absorption / Food Consumption / Food Efficiency / Serum Cholesterol / Serum Free Fatty Acids / Serum Glucose / Serum IRI (immunoreactive insulin) / Serum Triglycerides: sodium salt, mean ± SE
From the text: (§1) Faster enzymatic procedure for serum triglycerides, Clinical Chemistry, 21: 1983-1985], cholesterol, [C. C. Allain, L. Poon, S. G. Chan, W. Richmond and P. Fu (1974). Enzymatic determination of total serum cholesterol, Clinical Chemistry, 20: 470-475] and glucose, [R. Konig, H. Dauwalder and R. Richterich (1971). Vergleichende Bestimmungen der Uringlucosekonzentration mit der Polarimetrie und einer enzymatischen Methode (Hexokinase/Glucose-6-Phosphat-Dehydrogenase), Schweiz. Med. Wschr., 101: 860-866], by enzymatic procedures and free fatty acids, [C. Dalton and C. Kowalski (1967). Automated colorimetric determination of free fatty acids in biologic fluids, Clinical Chemistry, 13: 744-751], by a Colorimetric procedure. Serum immunoreactive insulins were determined by radioimmunoassay, [G. F. Bryce, P. R. Johnson, A. C. Sullivan, J. S. Stern (1977). Insulin and glucagon: Plasma levels and pancreatic release in the gentically obese Zucker rat, Hormone and Metabolic Research, 9: 366-370].
(§2) FIG. 2 sets forth body weight gain values of rats matched for initial body weight and pair fed 10% corn oil diet without dinitrodescarboxylasalocid and three groups of pair fed rats receiving 60, 120 and 240 mg/kg of dinitrodescarboxylasalocid as dietary admixes for 31 days respectively. […] Tables 12 and 13 describe the effects of dinitrodescarboxylasalocid (150 mg/kg b.i.d. by oral intubation) in genetically obese and lean Zucker rats for 21 days.

[3] = system: obese and lean female Zucker rats; experiment: Chronic 21 day experiment in obese and lean Zucker rats; type: in vivo, Zucker rat; conditions: 150 mg/kg b.i.d. oral, 21 days, sodium salt, mean ± SE
From the text: Ad libitum fed lean and genetically obese Zucker rats (140 days old) were used in one chronic study.
as §1, §2

CC[C@@H](C(=O)[C@@H](C)[C@@H](O)[C@H](C)CCc1c([N+](=O)[O-])cc(C)c(O)c1[N+](=O)[O-])[C@H]1O[C@](CC)([C@H]2CC[C@](O)(CC)[C@H](C)O2)C[C@@H]1C [Dinitrodescarboxylasalocid]
Fatty Acid Synthesis 3H2O converted ([1]; 60 mg/kg i.p.): 12.5 ± 2.1 μmoles per 1 g liver in 30 min
Fatty Acid Synthesis [14C]alanine converted ([1]; 60 mg/kg i.p.): 208 ± 42 nmoles per 1 g liver in 30 min
Fatty Acid Synthesis 3H2O converted ([1]; Experiment 1, 240 mg/kg p.o.): 17.1 ± 3.5 μmoles per 1 g liver per 30 mi
Fatty Acid Synthesis [14C]alanine converted ([1]; Experiment 1, 240 mg/kg p.o.): 250 ± 87 nmoles per 1 g liver per 30 mi
Fatty Acid Synthesis 3H2O converted ([1]; Experiment 2, 60 mg/kg p.o.): 17.0 ± 3.1 μmoles per 1 g liver per 30 mi
Fatty Acid Synthesis [14C]alanine converted ([1]; Experiment 2, 60 mg/kg p.o.): 711 ± 130 nmoles per 1 g liver per 30 mi
Fatty Acid Synthesis 3H2O converted ([1]; Experiment 2, 120 mg/kg p.o.): 18.7 ± 2.1 μmoles per 1 g liver per 30 mi
Fatty Acid Synthesis [14C]alanine converted ([1]; Experiment 2, 120 mg/kg p.o.): 696 ± 80 nmoles per 1 g liver per 30 mi
Fatty Acid Synthesis 3H2O converted ([1]; Experiment 2, 240 mg/kg p.o.): 12.6 ± 1.4 μmoles per 1 g liver per 30 mi
Fatty Acid Synthesis [14C]alanine converted ([1]; Experiment 2, 240 mg/kg p.o.): 510 ± 64 nmoles per 1 g liver per 30 mi
Body Weight Gain ([2]; 60 mg/kg dietary admix): 64 ± 6 g
Body Weight final ([2]; 60 mg/kg dietary admix): 255 ± 8 g
Fat Absorption ([2]; 60 mg/kg dietary admix): 95.6 ± 0.6%
Food Consumption ([2]; 60 mg/kg dietary admix): 17.4 ± 0.6 g/day
Food Efficiency ([2]; 60 mg/kg dietary admix): 0.115 ± 0.010 g gained/g consumed
Serum Cholesterol ([2]; 60 mg/kg): 106 ± 6 mg/100 ml
Serum Free Fatty Acids ([2]; 60 mg/kg): 469 ± 46 μeq/l
Serum Glucose ([2]; 60 mg/kg): 173 ± 5 mg/100 ml
Serum IRI (immunoreactive insulin) ([2]; 60 mg/kg): 1.8 ± 0.2 ng/mL
Serum Triglycerides ([2]; 60 mg/kg): 73 ± 3 mg/100 ml
Body Weight Gain ([2]; 120 mg/kg dietary admix): 66 ± 8 g
Body Weight final ([2]; 120 mg/kg dietary admix): 256 ± 10 g
Fat Absorption ([2]; 120 mg/kg dietary admix): 95.8 ± 0.6%
Food Consumption ([2]; 120 mg/kg dietary admix): 19.0 ± 0.5 g/day
Food Efficiency ([2]; 120 mg/kg dietary admix): 0.109 ± 0.014 g gained/g consumed
Serum Cholesterol ([2]; 120 mg/kg): 88 ± 6 mg/100 ml
Serum Free Fatty Acids ([2]; 120 mg/kg): 425 ± 45 μeq/l
Serum Glucose ([2]; 120 mg/kg): 164 ± 5 mg/100 ml
Serum IRI (immunoreactive insulin) ([2]; 120 mg/kg): 2.0 ± 0.2 ng/mL
Serum Triglycerides ([2]; 120 mg/kg): 64 ± 5 mg/100 ml
Body Weight Gain ([2]; 240 mg/kg dietary admix): 51 ± 3 g
Body Weight final ([2]; 240 mg/kg dietary admix): 246 ± 4 g
Fat Absorption ([2]; 240 mg/kg dietary admix): 88.1 ± 1.7%
Food Consumption ([2]; 240 mg/kg dietary admix): 17.6 ± 0.5 g/day
Food Efficiency ([2]; 240 mg/kg dietary admix): 0.083 ± 0.011 g gained/g consumed
Serum Cholesterol ([2]; 240 mg/kg): 155 ± 9 mg/100 ml
Serum Free Fatty Acids ([2]; 240 mg/kg): 423 ± 61 μeq/l
Serum Glucose ([2]; 240 mg/kg): 155 ± 8 mg/100 ml
Serum IRI (immunoreactive insulin) ([2]; 240 mg/kg): 1.7 ± 0.2 ng/mL
Serum Triglycerides ([2]; 240 mg/kg): 51 ± 4 mg/100 ml
Body weight gain compared to controls and the respective pair-fed groups (FIG. 2) ([2]; 60, 120 and 240 mg/kg dietary admix): reduced significantly only at the 240 mg/kg dose
Body Weight Gain ([3]; Fa/- (lean)): 20 ± 4 g
Fat Absorption ([3]; Fa/- (lean)): 90.1 ± 0.9%
Fecal Weight ([3]; Fa/- (lean)): 1.6 ± 0.1 g
Final Body Weight ([3]; Fa/- (lean)): 202 ± 5 g
Food Consumption ([3]; Fa/- (lean)): 16.8 ± 0.8 g/day
Serum Cholesterol ([3]; Fa/- (lean)): 84 ± 7 mg/100 ml
Serum Free Fatty Acids ([3]; Fa/- (lean)): 519 ± 58 μeq/l
Serum Glucose ([3]; Fa/- (lean)): 154 ± 6 mg/100 ml
Serum IRI (immunoreactive insulin) ([3]; Fa/- (lean)): 0.5 ± 0.1 ng/mL
Serum Triglycerides ([3]; Fa/- (lean)): 71 ± 5 mg/100 ml
Body Weight Gain ([3]; fa/fa (obese)): 61 ± 6 g
Fat Absorption ([3]; fa/fa (obese)): 93.0 ± 1.1%
Fecal Weight ([3]; fa/fa (obese)): 2.1 ± 0.1 g
Final Body Weight ([3]; fa/fa (obese)): 352 ± 12 g
Food Consumption ([3]; fa/fa (obese)): 19.5 ± 0.9 g/day
Serum Cholesterol ([3]; fa/fa (obese)): 168 ± 6 mg/100 ml
Serum Free Fatty Acids ([3]; fa/fa (obese)): 668 ± 59 μeq/l
Serum Glucose ([3]; fa/fa (obese)): 201 ± 12 mg/100 ml
Serum IRI (immunoreactive insulin) ([3]; fa/fa (obese)): 8.3 ± 0.6 ng/mL
Serum Triglycerides ([3]; fa/fa (obese)): 178 ± 19 mg/100 ml
